Data published in article PMC2747507 (The Pediatric infectious disease journal, 2009).
Like-named read-outs stand apart in the source and are kept apart here. Numbered stars: 1 amine (or outer) side, 2 acyl side, 3 side chain; on linkers, the order of the positions; unused ones are H or OH. Bridge positions count the residues as written; N and C are the ends. Square brackets hold non-standard residues; d marks the D form. Peptide text beside a SMILES is read from it. * marks the point of attachment. hTyr(3S-OH,4S-OH,3'-OSO3H) = N[C@H](C(=O)O)[C@H](O)[C@@H](O)c1ccc(O)c(OS(=O)(=O)O)c1; Orn(4R-OH,5R-OH) = O=C([C@H](C[C@@H](O)[C@@H](O)N[*:3])N[*:1])[*:2]; Pro(3S-OH,4S-Me) = C[C@H]1CN[C@H](C(=O)O)[C@H]1O; X1 = CCCCCOc1ccc(-c2cc(-c3ccc(C(=O)*)cc3)no2)cc1; Gln(3R-OH) = NC(=O)C[C@@H](O)[C@H](N)C(=O)O; Hyp = O=C(O)[C@@H]1C[C@@H](O)CN1

What was measured:
[1] = cited from earlier work
[2] = type: in vivo, human (preterm neonates); conditions: 15 mg/kg/day IV
[3] = system: central nervous system infections; conditions: neutropenic rabbits; cited from earlier work
[4] = cited from earlier work; remark: listed apart in the source
[5] = type: in vivo, human (preterm neonates)
[6] = neonates <1000 grams (n=7), mean (SD), SD
[7] = neonates ≥1000 grams (n=5), mean (SD), SD
[8] = 12 neonates, 15 mg/kg/day IV for 5 days, not felt related to micafungin

With `CCCCCOc1ccc(-c2cc(-c3ccc(C(=O)N[C@H]4C[C@@H](O)[C@@H](O)NC(=O)[C@@H]5[C@@H](O)[C@@H](C)CN5C(=O)[C@H]([C@H](O)CC(N)=O)NC(=O)[C@H]([C@H](O)[C@@H](O)c5ccc(O)c(OS(=O)(=O)O)c5)NC(=O)[C@@H]5C[C@@H](O)CN5C(=O)[C@H]([C@@H](C)O)NC4=O)cc3)no2)cc1` [micafungin] (X1-[Orn(4R-OH,5R-OH)]T[Hyp][hTyr(3S-OH,4S-OH,3'-OSO3H)][Gln(3R-OH)][Pro(3S-OH,4S-Me)]; lactam 1-C) as the compound, how does the “mean CL” value ([1]; 18 neonates > 1000 g, single IV dose 0.75, 1.5 or 3.0 mg/kg) read?
Its value is 0.65 mL/min/kg.

What about the CL ([1]; neonates < 1000g, single dose 0.75 mg/kg, data from 4 patients) of the same compound?
Its CL is 1.32 mL/min/kg.

What about the “Vdss in neonates from the previous study” value ([1]; single-dose study in neonates) of the same compound?
The value was 0.44 L/kg.

What about the “highest observed AUC0–24” value ([2]; preterm neonates, maximum of n=12) of the same compound?
The value was 555.6 µg·h/mL.

And the Vdss [2, 6]?
The Vdss was 1.637(0.657) L/kg.

What about the Vdβ [2, 6] of the same compound?
Its Vdβ is 0.636(0.370) L/kg.

What about the Vdss [2, 7] of the same compound?
The Vdss was 1.344(0.141) L/kg.

What about the Vdβ [2, 7] of the same compound?
The Vdβ was 0.581(0.106) L/kg.

And the “Vdβ, volume of distribution in the elimination phase” value ([2]; whole cohort n=12, mean (SD), SD)?
The value was 0.613(0.282) L/kg.

What about the Cmax ([2]; whole cohort n=12, obtained directly from the data, mean (SD), SD) of the same compound?
The Cmax was 38.4(8.8) ug/mL.

And the Vdss ([2]; whole cohort n=12, weight-normalized, mean (SD), SD)?
The Vdss was 1.515(0.516) L/kg.

What about the “treatment of central nervous system infections” value [3] of the same compound?
Its value is “Successful treatment”.

What about the Vdss ([4]; adult studies) of the same compound?
Its Vdss is 0.26 L/kg.

What about the “average AUC” value ([4]; adults, 150 mg dose) of the same compound?
Its value is 166.7 µg·h/mL.

What about the CL ([4]; adults) of the same compound?
Its CL is 0.16 mL/min/kg.

And the CL ([4]; children ages 2–8 years)?
The CL was 0.38 mL/min/kg.

What about the CL ([4]; children ages 9–17 years) of the same compound?
The CL was 0.28 mL/min/kg.

And the “reported AE: hypochloremia” value [5, 8]?
The value was 33%.

What about the “reported AE: hypokalemia” value [5, 8] of the same compound?
Its value is 25%.

What about the “reported AE: hyponatremia” value [5, 8] of the same compound?
The value was 42%.

What about the “reported AE: monocytosis” value [5, 8] of the same compound?
The value was 25%.

And the “renal toxicity and changes in hematology parameters” value ([5]; 12 neonates, baseline vs end of therapy)?
Its value is “No evidence of renal toxicity or significant changes in hematology parameters”.

And the deaths ([5]; 12 neonates, 3 days after completing the course of micafungin)?
Its deaths is “One 540 g neonate died on day of life 11 from necrotizing enterocolitis”.

What about the “Potassium, after 5th dose” value ([5]; median (IQR), prior to 1st dose 4.0 (3.4, 4.4), P 0.03) of the same compound?
The value was 4.6 mmol/L.
